# Results as given in US10597388B2, “Pyridazinone herbicides” (FMC CORPORATION, priority 2014, dated 2020).
# Assays:
# Test in all cases: Test D controlled growth environment herbicide test, pre- and postemergence
# Format in all cases: in vivo
# [1] = tested on: chamomile (scentless chamomile, Matricaria inodora)
# Method in brief: (§1)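 Rating is visual, 0–100 scale (100 = complete control), made against untreated plants 14–21 d after treatment in controlled growth conditions. Postemergence sprays went onto 1- to 4-leaf plants in peat medium; preemergence sprays onto silt loam after sowing; formulation included a surfactant.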
# kochia (Kochia scoparia) = tested on: kochia (Kochia scoparia)
# Method in brief: as §1
# [2] = tested on: field violet (Viola arvensis)
# Method in brief: as §1
# [3] = tested on: lambsquarters (Chenopodium album)
# Method in brief: as §1
# [4] = tested on: speedwell (bird's-eye speedwell, Veronica persica)
# Method in brief: as §1
# [5] = tested on: Russian thistle (Salsola kali)
# Method in brief: as §1
# [6] = tested on: oilseed rape (Brassica napus)
# Method in brief: as §1
# [7] = tested on: bromegrass, downy (downy bromegrass, Bromus tectorum)
# Method in brief: as §1
# [8] = tested on: blackgrass (Alopecurus myosuroides)
# Method in brief: as §1
# [9] = tested on: oat, wild (wild oat, Avena fatua)
# Method in brief: as §1
# [10] = tested on: galium (catchweed bedstraw, Galium aparine)
# Method in brief: as §1
# [11] = tested on: buckwheat, wild (wild buckwheat, Polygonum convolvulus)
# Method in brief: as §1
# [12] = tested on: pigweed (Amaranthus retroflexus)
# Method in brief: as §1
# [13] = Postemergence, 31 g ai/ha, scale 0 to 100 (0 no effect, 100 complete control)
# [14] = Postemergence, 125 g ai/ha, visual rating on scale 0 (no effect) to 100 (complete control), 14 to 21 d
# [15] = Postemergence, 250 g ai/ha, scale 0 to 100 (0 no effect, 100 complete control)
# [16] = postemergence, 62 g ai/ha, scale 0 to 100, 0 no effect, 100 complete control
# [17] = Preemergence, 62 g ai/ha, scale 0 to 100 (0 no effect, 100 complete control)
# [18] = Preemergence, 125 g ai/ha, scale 0 to 100 (0 no effect, 100 complete control)
# [19] = Preemergence, 250 g ai/ha, scale 0 to 100 (0 no effect, 100 complete control)
compound,measurement,setting,value
COc1nn(C)c(=O)c(-c2c(C)ccc3ccccc23)c1O [Compound 54],Chamomile plant response rating,[1]; [13],90
same,"Plant response rating, Chamomile",[1]; [14],100
same,"Plant response rating, Chamomile",[1]; [15],100
same,"Plant response rating, Chamomile",[1]; [16],100
same,Kochia plant response rating,kochia (Kochia scoparia); [13],15
same,"Plant response rating, Kochia",kochia (Kochia scoparia); [14],100
same,"Plant response rating, Kochia",kochia (Kochia scoparia); [15],100
same,"Plant response rating (scale of 0 to 100), Kochia","kochia (Kochia scoparia); Preemergence, 31 g ai/ha",25
same,"Plant response rating, Kochia",kochia (Kochia scoparia); [17],60
same,"Plant response rating, Kochia",kochia (Kochia scoparia); [18],30
same,"Plant response rating, Kochia",kochia (Kochia scoparia); [19],45
same,"Plant response rating, Kochia",kochia (Kochia scoparia); [16],95
same,Field Violet plant response rating,[2]; [13],85
same,"Plant response rating, Field Violet",[2]; [14],95
same,"Plant response rating, Field Violet",[2]; [15],90
same,"Plant response rating (scale of 0 to 100), Field Violet","[2]; Preemergence, 31 g ai/ha",25
same,"Plant response rating, Field Violet",[2]; [17],35
same,"Plant response rating, Field Violet",[2]; [18],70
same,"Plant response rating, Field Violet",[2]; [19],95
same,"Plant response rating, Field Violet",[2]; [16],75
same,Lambsquarters plant response rating,[3]; [13],95
same,"Plant response rating, Lambsquarters",[3]; [14],95
same,"Plant response rating, Lambsquarters",[3]; [15],100
same,"Plant response rating (scale of 0 to 100), Lambsquarters","[3]; Preemergence, 31 g ai/ha",65
same,"Plant response rating, Lambsquarters",[3]; [17],65
same,"Plant response rating, Lambsquarters",[3]; [18],95
same,"Plant response rating, Lambsquarters",[3]; [19],95
same,"Plant response rating, Lambsquarters",[3]; [16],95
same,Speedwell plant response rating,[4]; [13],75
same,"Plant response rating, Speedwell",[4]; [14],100
same,"Plant response rating, Speedwell",[4]; [15],100
same,"Plant response rating (scale of 0 to 100), Speedwell","[4]; Preemergence, 31 g ai/ha",100
same,"Plant response rating, Speedwell",[4]; [17],95
same,"Plant response rating, Speedwell",[4]; [18],100
same,"Plant response rating, Speedwell",[4]; [19],100
same,"Plant response rating, Speedwell",[4]; [16],100
same,Russian Thistle plant response rating,[5]; [13],80
same,"Plant response rating, Russian Thistle",[5]; [14],90
same,"Plant response rating, Russian Thistle",[5]; [15],100
same,"Plant response rating (scale of 0 to 100), Russian Thistle","[5]; Preemergence, 31 g ai/ha",0
same,"Plant response rating, Russian Thistle",[5]; [17],0
same,"Plant response rating, Russian Thistle",[5]; [18],25
same,"Plant response rating, Russian Thistle",[5]; [19],35
same,"Plant response rating, Russian Thistle",[5]; [16],80
same,Oilseed Rape plant response rating,[6]; [13],75
same,"Plant response rating, Oilseed Rape",[6]; [14],100
same,"Plant response rating, Oilseed Rape",[6]; [15],100
same,"Plant response rating (scale of 0 to 100), Oilseed Rape","[6]; Preemergence, 31 g ai/ha",15
same,"Plant response rating, Oilseed Rape",[6]; [17],50
same,"Plant response rating, Oilseed Rape",[6]; [18],85
same,"Plant response rating, Oilseed Rape",[6]; [19],100
same,"Plant response rating, Oilseed Rape",[6]; [16],95
same,"Bromegrass, Downy plant response rating",[7]; [13],10
same,"Plant response rating, Bromegrass, Downy",[7]; [14],55
same,"Plant response rating, Bromegrass, Downy",[7]; [15],75
same,"Plant response rating (scale of 0 to 100), Bromegrass, Downy","[7]; Preemergence, 31 g ai/ha",0
same,"Plant response rating, Bromegrass, Downy",[7]; [17],15
same,"Plant response rating, Bromegrass, Downy",[7]; [18],15
same,"Plant response rating, Bromegrass, Downy",[7]; [19],40
same,"Plant response rating, Bromegrass, Downy",[7]; [16],55
same,Blackgrass plant response rating,[8]; [13],25
same,"Plant response rating, Blackgrass",[8]; [14],70
same,"Plant response rating, Blackgrass",[8]; [15],75
same,"Plant response rating (scale of 0 to 100), Blackgrass","[8]; Preemergence, 31 g ai/ha",15
same,"Plant response rating, Blackgrass",[8]; [17],30
same,"Plant response rating, Blackgrass",[8]; [18],50
same,"Plant response rating, Blackgrass",[8]; [19],75
same,"Plant response rating, Blackgrass",[8]; [16],40
same,"Oat, Wild plant response rating",[9]; [13],75
same,"Plant response rating, Oat, Wild",[9]; [14],90
same,"Plant response rating, Oat, Wild",[9]; [15],90
same,"Plant response rating (scale of 0 to 100), Oat, Wild","[9]; Preemergence, 31 g ai/ha",75
same,"Plant response rating, Oat, Wild",[9]; [17],75
same,"Plant response rating, Oat, Wild",[9]; [18],85
same,"Plant response rating, Oat, Wild",[9]; [19],95
same,"Plant response rating, Oat, Wild",[9]; [16],85
same,Galium plant response rating,[10]; [13],100
same,"Plant response rating, Galium",[10]; [14],100
same,"Plant response rating, Galium",[10]; [15],100
same,"Plant response rating (scale of 0 to 100), Galium","[10]; Preemergence, 31 g ai/ha",0
same,"Plant response rating, Galium",[10]; [17],45
same,"Plant response rating, Galium",[10]; [18],85
same,"Plant response rating, Galium",[10]; [19],100
same,"Plant response rating, Galium",[10]; [16],100
same,"Buckwheat, Wild plant response rating",[11]; [13],100
same,"Plant response rating, Buckwheat, Wild",[11]; [14],100
same,"Plant response rating, Buckwheat, Wild",[11]; [15],100
same,"Plant response rating (scale of 0 to 100), Buckwheat, Wild","[11]; Preemergence, 31 g ai/ha",0
same,"Plant response rating, Buckwheat, Wild",[11]; [17],5
same,"Plant response rating, Buckwheat, Wild",[11]; [18],70
same,"Plant response rating, Buckwheat, Wild",[11]; [19],80
same,"Plant response rating, Buckwheat, Wild",[11]; [16],100
same,Pigweed plant response rating,[12]; [13],100
same,"Plant response rating, Pigweed",[12]; [14],100
same,"Plant response rating, Pigweed",[12]; [15],100
same,"Plant response rating (scale of 0 to 100), Pigweed","[12]; Preemergence, 31 g ai/ha",80
same,"Plant response rating, Pigweed",[12]; [17],100
same,"Plant response rating, Pigweed",[12]; [18],100
same,"Plant response rating, Pigweed",[12]; [19],100
same,"Plant response rating, Pigweed",[12]; [16],100
